From patent US20050171358A1 (priority 2002, published 2005)

Experiments:
[1] = test system: Colletotrichum lagenarium; details: 200 ppm spray on cucumber (3 leaf stage), inoculated next day; lesion numbers on first and second leaves after 7 days in green house, graded by Table 5
Pyricularia oryzae = type: in vivo; details: 200 ppm spray on rice (Koshihikari, 3 leaf stage), inoculated next day; lesion numbers on third leaves after 7 days in green house, graded by Table 5

Compound	Evaluation (effect for cucumber anthracnose) [1]	Evaluation (effect for rice blast) (Pyricularia oryzae)
Cc1cc(CNC(=O)NC2CCCCC2)on1 [II-108, 3-(3-methyl-5-isoxazolyl)methyl-1-cyclohexylurea]	2 (11˜20)	1 (21˜41)
CNC(=O)c1cc(CNC(=O)NC2CCCCC2)on1 [II-110, 3-(3-methylaminocarbonyl-5-isoxazolyl)methyl-1-cyclohexylurea]	1 (21˜41)	1 (21˜41)
O=C(NCc1cc(COC2=CC(=O)C3CCC2C3)no1)NC1CCCCC1 (centres unmarked) [II-112, 3-[3-(bicyclo[3.2.1]oct-2-en-4-on-2-yl)oxymethyl-5-isoxazolyl]methyl-1-cyclohexylurea]	3 (6˜10)	3 (6˜10)
N#CCc1cc(CNC(=O)NC2CCCCC2)on1 [II-113, 3-(3-cyanomethyl-5-isoxazolyl)methyl-1-cyclohexylurea]	1 (21˜41)	2 (11˜20)
CSCc1cc(CNC(=O)NC2CCCCC2)on1 [II-114, 3-(3-methylthiomethyl-5-isoxazolyl)methyl-1-cyclohexylurea]	3 (6˜10)	3 (6˜10)
CC(C)c1cc(CNC(=O)c2ccccc2)on1 [III-4, N-[(3-isopropyl-5-isoxazolyl)methyl]benzamide]	4 (1˜5)	3 (6˜10)
Cc1ccc(C(=O)NCc2cc(C(C)C)no2)cc1 [III-5, N-[(3-isopropyl-5-isoxazolyl)methyl]-4-methyl benzamide]	4 (1˜5)	4 (1˜5)
O=C(NCc1cc(C2CCCCC2)no1)c1ccccc1 [III-6, N-[(3-cyclohexyl-5-isoxazolyl)methyl]benzamide]	4 (1˜5)	5 (0)
Cc1ccc(-c2cc(CNC(=O)c3ccccc3)on2)cc1 [III-10, N-{[3-(4-tolyl)-5-isoxazolyl]methyl}benzamide]	5 (0)	5 (0)
Cc1ccc(C(=O)NCc2cc(-c3ccc(C)cc3)no2)cc1 [III-11, N-{[3-(4-tolyl)-5-isoxazolyl]methyl}-4-methylbenzamide]	3 (6˜10)	5 (0)
COc1ccc(C(=O)NCc2cc(-c3ccc(C)cc3)no2)cc1 [III-12, N-{[3-(4-tolyl)-5-isoxazolyl]methyl}-4-methoxybenzamide]	5 (0)	5 (0)
COc1ccc(C(=O)NCc2cc(-c3ccc(C(C)(C)C)cc3)no2)cc1 [III-14, N-{[3-(4-t-butylphenyl)-5-isoxazolyl]methyl}-4-methoxybenzamide]	3 (6˜10)	5 (0)
COc1ccc(-c2cc(CNC(=O)c3ccccc3)on2)cc1 [III-17, N-{[3-(4-methoxyphenyl)-5-isoxazolyl]methyl}benzamide]	5 (0)	5 (0)
COc1ccc(C(=O)NCc2cc(-c3ccc(OC)cc3)no2)cc1 [III-18, N-{[3-(4-methoxyphenyl)-5-isoxazolyl]methyl}-4-methoxy benzamide]	5 (0)	5 (0)
COc1ccc(-c2cc(CNC(=O)c3ccc(C)cc3)on2)cc1 [III-19, N-{[3-(4-methoxyphenyl)-5-isoxazolyl]methyl}-4-methylbenzamide]	5 (0)	5 (0)
Cc1ccc(C(=O)NCc2cc(-c3ccc(S(C)(=O)=O)cc3)no2)cc1 [III-26, N-{[3-(4-mesylphenyl)-5-isoxazolyl]methyl}-4-methylbenzamide]	5 (0)	5 (0)
Cc1ccc(C(=O)NCc2cc(-c3ccc([S+](C)[O-])cc3)no2)cc1 (centres unmarked) [III-27, N-{[3-(4-methanesulfinylphenyl)-5-isoxazolyl]methyl}-4-methylbenzamide]	5 (0)	5 (0)
CSc1ccc(-c2cc(CNC(=O)c3ccc(C)cc3)on2)cc1 [III-28, N-{[3-(4-methylthiophenyl)-5-isoxazolyl]methyl}-4-methylbenzamide]	4 (1˜5)	5 (0)
Cc1ccc(C(=O)NCc2cc(-c3ccc(F)cc3)no2)cc1 [III-31, N-{[3-(4-fluorophenyl)-5-isoxazolyl]methyl}-4-methylbenzamide]	5 (0)	5 (0)
O=C(NCc1cc(-c2ccc(Cl)cc2)no1)c1ccccc1 [III-34, N-{[3-(4-chlorophenyl)-5-isoxazolyl]methyl}benzamide]	5 (0)	5 (0)

Compound	Evaluation (effect for cucumber anthracnose) [1]	Evaluation (effect for rice blast) (Pyricularia oryzae)
O=C(NCc1cc(-c2ccc(Br)cc2)no1)c1ccccc1 [III-37, N-{[3-(4-bromophenyl)-5-isoxazolyl]methyl}benzamide]	3 (6˜10)	5 (0)
O=C(NCc1cc(-c2ccc(C(F)(F)F)cc2)no1)c1ccccc1 [III-40, N-{[3-(4-trifluoromethylphenyl)-5-isoxazolyl]methyl}benzamide]	5 (0)	5 (0)
Cc1ccc(C(=O)NCc2cc(-c3ccc(C#N)cc3)no2)cc1 [III-43, N-{[3-(4-cyanophenyl)-5-isoxazolyl]methyl}-4-methylbenzamide]	4 (1˜5)	5 (0)
COc1ccc(C(=O)NCc2cc(-c3ccc(OC(F)(F)F)cc3)no2)cc1 [III-49, N-{[3-(4-trifluoromethoxyphenyl)-5-isoxazolyl]methyl}-4-methoxybenzamide]	5 (0)	5 (0)
Cc1ccc(C(=O)NCc2cc(-c3ccc(C(=O)O)cc3)no2)cc1 [III-51, N-{[3-(4-carboxyphenyl)-5-isoxazolyl]methyl}-4-methylbenzamide]	4 (1˜5)	5 (0)
COC(=O)c1ccc(-c2cc(CNC(=O)c3ccc(C)cc3)on2)cc1 [III-52, N-{[3-(4-methoxycarbonylphenyl)-5-isoxazolyl]methyl}-4-methylbenzamide]	5 (0)	5 (0)
Cc1ccc(C(=O)NCc2cc(-c3ccc(N(C)C)cc3)no2)cc1 [III-61, N-{[3-(4-dimethylaminophenyl)-5-isoxazolyl]methyl}-4-methylbenzamide]	4 (1˜5)	5 (0)
Cc1ccc(C(=O)NCc2cc(-c3ccc(C)cc3C)no2)cc1 [III-65, N-{[3-(2,4-dimethylphenyl)-5-isoxazolyl]methyl}-4-methylbenzamide]	5 (0)	5 (0)
COc1ccc(-c2cc(CNC(=O)c3ccc(C)cc3)on2)c(OC)c1 [III-66, N-{[3-(2,4-dimethoxyphenyl)-5-isoxazolyl]methyl}-4-methylbenzamide]	5 (0)	5 (0)
COc1ccc(-c2cc(CNC(=O)c3ccccc3)on2)cc1OC [III-67, N-{[3-(3,4-dimethoxyphenyl)-5-isoxazolyl]methyl}benzamide]	5 (0)	5 (0)
COc1ccc(-c2cc(CNC(=O)c3ccc(C)cc3)on2)cc1OC [III-68, N-{[3-(3,4-dimethoxyphenyl)-5-isoxazolyl]methyl}-4-methylbenzamide]	5 (0)	5 (0)
Cc1ccc(C(=O)NCc2cc(-c3ccc(C)c(F)c3)no2)cc1 [III-73, N-{[3-(3-fluoro-4-methylphenyl)-5-isoxazolyl]methyl}-4-methylbenzamide]	4 (1˜5)	5 (0)
COc1ccc(-c2cc(CNC(=O)c3ccc(C)cc3)on2)c(F)c1 [III-74, N-{[3-(2-fluoro-4-methoxyphenyl)-5-isoxazolyl]methyl}-4-methylbenzamide]	5 (0)	5 (0)
Cc1ccc(C(=O)NCc2cc(-c3ccccc3)no2)cc1 [III-107, N-[(3-phenyl-5-isoxazolyl)methyl]-4-methylbenzamide]	5 (0)	5 (0)
CC(C)(C)c1ccc(C(=O)NCc2cc(-c3ccccc3)no2)cc1 [III-108, N-[(3-phenyl-5-isoxazolyl)methyl]-4-t-butylbenzamide]	3 (6˜10)	2 (11˜20)
COc1ccccc1C(=O)NCc1cc(-c2ccccc2)no1 [III-109, N-[(3-phenyl-5-isoxazolyl)methyl]-2-methoxybenzamide]	5 (0)	4 (1˜5)
COc1ccc(C(=O)NCc2cc(-c3ccccc3)no2)cc1 [III-111, N-[(3-phenyl-5-isoxazolyl)methyl]-4-methoxy benzamide]	5 (0)	5 (0)
O=C(NCc1cc(-c2ccccc2)no1)c1ccc(F)cc1 [III-121, N-[(3-phenyl-5-isoxazolyl)methyl]-4-fluorobenzamide]	5 (0)	5 (0)
O=C(NCc1cc(-c2ccccc2)no1)c1ccccc1Cl [III-122, N-[(3-phenyl-5-isoxazolyl)methyl]-2-chlorobenzamide]	4 (1˜5)	4 (1˜5)
O=C(NCc1cc(-c2ccccc2)no1)c1cccc(Cl)c1 [III-123, N-[(3-phenyl-5-isoxazolyl)methyl]-3-chlorobenzamide]	5 (0)	5 (0)
